Earlier results as cited in patent US5610177A, “Acylated amino acids as endothelin antagonists” (Warner-Lambert Company, priority 1994, dated 1997).
Where a SMILES comes first, the peptide text is derived from it. Where no end group is shown, it is not given here. [ ]: non-standard residue; d: D form.

Key:
[1] = tested on: ETA receptor; settings: conscious rats; cited from earlier work
[2] = tested on: ETA receptor; settings: rats, i.v.; cited from earlier work
[3] = tested on: Endothelin receptor subtype-A; settings: intravenous infusion; cited from earlier work
[4] = tested on: Endothelin receptor; settings: rat model; cited from earlier work
[5] = tested on: Endothelin receptor; settings: i.v., cited from earlier work
[6] = tested on: ETA receptor; settings: rabbit retinal arteries, i.v.; cited from earlier work
[7] = tested on: Endothelin receptor subtype-A; settings: intravenous infusion, stroke prone spontaneous hypertensive rats; cited from earlier work
[8] = conditions of hypoglycemia; cited from earlier work
[9] = local intra-arterial administration, rats; cited from earlier work
[10] = tested on: liver; settings: cited from earlier work

## CC(C)C[C@@H]1NC(=O)[C@@H](C(C)C)NC(=O)[C@@H]2CCCN2C(=O)[C@@H](CC(=O)O)NC(=O)[C@@H](Cc2c[nH]c3ccccc23)NC1=O [BQ-123] (cyclo(L[dW][dD]P[dV]))
[1]
  antagonism of ET-1 induced pressor response: effective in antagonizing the ET-1 induced pressor response
[2]
  renal vascular resistance: blocked
[3]
  prevention of acute hypoxia induced pulmonary hypertension: effective in the prevention of acute hypoxia induced pulmonary hypertension
[4]
  acute CsA toxicity: suppressed
[5]; early phase of ischemic acute renal failure in rats
  mitochondrial Ca2+ accumulation: prevents the mitochondrial [Ca^2+ ] accumulation
[5]; ischemic acute renal failure in rats
  protection of proximal tubular cells: protects proximal tubular cells from post-ischemic degeneration
[6]
  ET-1 induced vasoconstriction: blocked
[7]
  blood pressure: decreased blood pressure significantly

## ET-3: one of a family of structurally similar bicyclic peptides (CTCFTYKDKECVYYCHLDIIW; not fully specified (bridges); cysteine pairing not given here; UniProt P14138 97-117, looked up)
[8]
  striatal damage: accelerate the development of striatal damage

## Endothelin
[9]
  small intestinal mucosal damage: induce small intestinal mucosal damage in rats in a dose-dependent manner
[10]
  hepatic vasoconstriction and glucose output: sustained vasoconstriction of the hepatic vasculature and a significant increase in hepatic glucose output
